Numbers after ± are expanded uncertainties.
Settings: Liquid, Vibrating tube method

CC(C)(C)O [2-methylpropan-2-ol]
Settings | mass density [kg/m3]
303.15 K, 99 kPa | 775.3 ± 0.8
303.15 K, 298 kPa | 775.5 ± 0.8
303.15 K, 499 kPa | 775.7 ± 0.8
303.15 K, 898 kPa | 776.1 ± 0.8
303.15 K, 1002 kPa | 776.2 ± 0.8
303.15 K, 2007 kPa | 777.1 ± 0.8
303.15 K, 3007 kPa | 778.1 ± 0.8
303.15 K, 4999 kPa | 780 ± 0.8
303.15 K, 7003 kPa | 781.9 ± 0.8
303.15 K, 8992 kPa | 783.7 ± 0.8
303.15 K, 10005 kPa | 784.6 ± 0.8
303.15 K, 11999 kPa | 786.3 ± 0.8
308.15 K, 97 kPa | 770.2 ± 0.8
308.15 K, 298 kPa | 770.4 ± 0.8
308.15 K, 500 kPa | 770.6 ± 0.8
308.15 K, 897 kPa | 771 ± 0.8
308.15 K, 1002 kPa | 771.1 ± 0.8
308.15 K, 2009 kPa | 772.1 ± 0.8
308.15 K, 3000 kPa | 773.1 ± 0.8
308.15 K, 5006 kPa | 775.1 ± 0.8
308.15 K, 9006 kPa | 778.8 ± 0.8
308.15 K, 10007 kPa | 779.7 ± 0.8
308.15 K, 12005 kPa | 781.5 ± 0.8
308.15 K, 15021 kPa | 784.1 ± 0.8
308.15 K, 19998 kPa | 788.2 ± 0.8
308.15 K, 22003 kPa | 789.8 ± 0.8
308.15 K, 24990 kPa | 792.2 ± 0.9
308.15 K, 28006 kPa | 794.5 ± 0.9
308.15 K, 30005 kPa | 796 ± 0.9
308.16 K, 7005 kPa | 777 ± 0.8
308.16 K, 18006 kPa | 786.6 ± 0.8
313.15 K, 99 kPa | 764.8 ± 0.8
313.15 K, 298 kPa | 765 ± 0.8
313.15 K, 502 kPa | 765.2 ± 0.8
313.15 K, 904 kPa | 765.7 ± 0.8
313.15 K, 1009 kPa | 765.8 ± 0.8
313.15 K, 2016 kPa | 766.8 ± 0.8
313.15 K, 3006 kPa | 767.8 ± 0.8
313.15 K, 5010 kPa | 769.9 ± 0.8
313.15 K, 7006 kPa | 771.8 ± 0.8
313.15 K, 9005 kPa | 773.7 ± 0.8
313.15 K, 10007 kPa | 774.7 ± 0.8
313.15 K, 12005 kPa | 776.5 ± 0.8
313.15 K, 15005 kPa | 779.2 ± 0.8
313.15 K, 18003 kPa | 781.8 ± 0.8
313.15 K, 20015 kPa | 783.5 ± 0.8
313.15 K, 22002 kPa | 785.1 ± 0.9
313.15 K, 25007 kPa | 787.5 ± 0.9
313.15 K, 28002 kPa | 789.9 ± 0.9
313.15 K, 30000 kPa | 791.4 ± 0.9
313.15 K, 33001 kPa | 793.7 ± 0.9
313.15 K, 33012 kPa | 793.6 ± 0.9
313.15 K, 34006 kPa | 794.4 ± 0.9
313.15 K, 35008 kPa | 795.1 ± 0.9
313.15 K, 38012 kPa | 797.2 ± 0.9
313.15 K, 40002 kPa | 798.6 ± 0.9
313.15 K, 42007 kPa | 800 ± 0.9
313.15 K, 44997 kPa | 802 ± 0.9
313.16 K, 32001 kPa | 792.9 ± 0.9
318.15 K, 100 kPa | 759.4 ± 0.8
318.15 K, 298 kPa | 759.6 ± 0.8
318.15 K, 498 kPa | 759.8 ± 0.8
318.15 K, 901 kPa | 760.3 ± 0.8
318.15 K, 1006 kPa | 760.4 ± 0.8
318.15 K, 2001 kPa | 761.5 ± 0.8
318.15 K, 3003 kPa | 762.6 ± 0.8
318.15 K, 5002 kPa | 764.7 ± 0.8
318.15 K, 7005 kPa | 766.7 ± 0.8
318.15 K, 8999 kPa | 768.7 ± 0.8
318.15 K, 10002 kPa | 769.7 ± 0.8
318.15 K, 11999 kPa | 771.6 ± 0.8
318.15 K, 15010 kPa | 774.4 ± 0.8
318.15 K, 17998 kPa | 777 ± 0.8
318.15 K, 20006 kPa | 778.8 ± 0.8
318.15 K, 21999 kPa | 780.5 ± 0.9
318.15 K, 24994 kPa | 782.9 ± 0.9
318.15 K, 28005 kPa | 785.4 ± 0.9
318.15 K, 30001 kPa | 787 ± 0.9
318.15 K, 32001 kPa | 788.5 ± 0.9
318.15 K, 32993 kPa | 789.3 ± 0.9
318.15 K, 33002 kPa | 789.3 ± 0.9
318.15 K, 34010 kPa | 790 ± 0.9
318.15 K, 35001 kPa | 790.8 ± 0.9
318.15 K, 38000 kPa | 793 ± 0.9
318.15 K, 40010 kPa | 794.4 ± 0.9
318.15 K, 42021 kPa | 795.9 ± 0.9
318.15 K, 45005 kPa | 797.9 ± 0.9
318.15 K, 47997 kPa | 799.9 ± 0.9
318.15 K, 49998 kPa | 801.3 ± 0.9
318.15 K, 52004 kPa | 802.6 ± 0.9
318.15 K, 55002 kPa | 804.6 ± 0.9
318.15 K, 57994 kPa | 806.5 ± 0.9
318.15 K, 60002 kPa | 807.7 ± 1
323.15 K, 99 kPa | 753.9 ± 0.8
323.15 K, 298 kPa | 754.1 ± 0.8
323.15 K, 502 kPa | 754.4 ± 0.8
323.15 K, 901 kPa | 754.9 ± 0.8
323.15 K, 1004 kPa | 755 ± 0.8
323.15 K, 2003 kPa | 756.1 ± 0.8
323.15 K, 3002 kPa | 757.2 ± 0.8
323.15 K, 5004 kPa | 759.4 ± 0.8
323.15 K, 7002 kPa | 761.5 ± 0.8
323.15 K, 9002 kPa | 763.5 ± 0.8
323.15 K, 10002 kPa | 764.5 ± 0.8
323.15 K, 12000 kPa | 766.5 ± 0.8
323.15 K, 14999 kPa | 769.3 ± 0.8
323.15 K, 17998 kPa | 772.1 ± 0.8
323.15 K, 20000 kPa | 773.9 ± 0.8
323.15 K, 22000 kPa | 775.7 ± 0.9
323.15 K, 25000 kPa | 778.2 ± 0.9
323.15 K, 27995 kPa | 780.7 ± 0.9
323.15 K, 30002 kPa | 782.4 ± 0.9
323.15 K, 32000 kPa | 784 ± 0.9
323.15 K, 33000 kPa | 784.7 ± 0.9
323.15 K, 33001 kPa | 784.7 ± 0.9
323.15 K, 34000 kPa | 785.5 ± 0.9
323.15 K, 35004 kPa | 786.2 ± 0.9
323.15 K, 38000 kPa | 788.5 ± 0.9
323.15 K, 39998 kPa | 790 ± 0.9
323.15 K, 41998 kPa | 791.5 ± 0.9
323.15 K, 45000 kPa | 793.6 ± 0.9
323.15 K, 47996 kPa | 795.7 ± 0.9
323.15 K, 50000 kPa | 797.1 ± 0.9
323.15 K, 51998 kPa | 798.4 ± 0.9
323.15 K, 55006 kPa | 800.5 ± 0.9
323.15 K, 57995 kPa | 802.4 ± 1
323.15 K, 60000 kPa | 803.7 ± 1
328.15 K, 101 kPa | 748.4 ± 0.8
328.15 K, 298 kPa | 748.7 ± 0.8
328.15 K, 499 kPa | 748.9 ± 0.8
328.15 K, 898 kPa | 749.4 ± 0.8
328.15 K, 1005 kPa | 749.5 ± 0.8
328.15 K, 2001 kPa | 750.7 ± 0.8
328.15 K, 3001 kPa | 751.9 ± 0.8
328.15 K, 5001 kPa | 754.1 ± 0.8
328.15 K, 7001 kPa | 756.3 ± 0.8
328.15 K, 9004 kPa | 758.5 ± 0.8
328.15 K, 9999 kPa | 759.5 ± 0.8
328.15 K, 11999 kPa | 761.6 ± 0.8
328.15 K, 15004 kPa | 764.5 ± 0.8
328.15 K, 18006 kPa | 767.4 ± 0.8
328.15 K, 19995 kPa | 769.2 ± 0.9
328.15 K, 22000 kPa | 771 ± 0.9
328.15 K, 24996 kPa | 773.6 ± 0.9
328.15 K, 27998 kPa | 776.2 ± 0.9
328.15 K, 30005 kPa | 777.9 ± 0.9
328.15 K, 32005 kPa | 779.5 ± 0.9
328.15 K, 33023 kPa | 780.3 ± 0.9
328.15 K, 33038 kPa | 780.4 ± 0.9
328.15 K, 34013 kPa | 781.1 ± 0.9
328.15 K, 35004 kPa | 781.9 ± 0.9
328.15 K, 38002 kPa | 784.3 ± 0.9
328.15 K, 40024 kPa | 785.8 ± 0.9
328.15 K, 41999 kPa | 787.2 ± 0.9
328.15 K, 45002 kPa | 789.4 ± 0.9
328.15 K, 47997 kPa | 791.6 ± 0.9
328.15 K, 49992 kPa | 793 ± 0.9
328.15 K, 55000 kPa | 796.4 ± 0.9
328.15 K, 57995 kPa | 798.3 ± 1
328.15 K, 60003 kPa | 799.6 ± 1
328.16 K, 51996 kPa | 794.3 ± 0.9
333.15 K, 103 kPa | 742.8 ± 0.8
333.15 K, 307 kPa | 743.1 ± 0.8
333.15 K, 502 kPa | 743.3 ± 0.8
333.15 K, 915 kPa | 743.8 ± 0.8
333.15 K, 1007 kPa | 744 ± 0.8
333.15 K, 2013 kPa | 745.2 ± 0.8
333.15 K, 3006 kPa | 746.4 ± 0.8
333.15 K, 5002 kPa | 748.8 ± 0.8
333.15 K, 7005 kPa | 751.1 ± 0.8
333.15 K, 9001 kPa | 753.3 ± 0.8
333.15 K, 9999 kPa | 754.3 ± 0.8
333.15 K, 12003 kPa | 756.5 ± 0.8
333.15 K, 15000 kPa | 759.6 ± 0.8
333.15 K, 17995 kPa | 762.5 ± 0.8
333.15 K, 19997 kPa | 764.4 ± 0.9
333.15 K, 21996 kPa | 766.2 ± 0.9
333.15 K, 24994 kPa | 768.9 ± 0.9
333.15 K, 27993 kPa | 771.6 ± 0.9
333.15 K, 30003 kPa | 773.3 ± 0.9
333.15 K, 32004 kPa | 775 ± 0.9
333.15 K, 32850 kPa | 775.7 ± 0.9
333.15 K, 32871 kPa | 775.7 ± 0.9
333.15 K, 34000 kPa | 776.6 ± 0.9
333.15 K, 34990 kPa | 777.4 ± 0.9
333.15 K, 38004 kPa | 779.8 ± 0.9
333.15 K, 39997 kPa | 781.4 ± 0.9
333.15 K, 41998 kPa | 782.9 ± 0.9
333.15 K, 44909 kPa | 785.1 ± 0.9
333.15 K, 48119 kPa | 787.4 ± 0.9

From the NIST ThermoML archive (doi:10.1021/acs.jced.5b00934)
